Results: the NIST ThermoML archive (doi:10.1016/j.fluid.2018.07.027)

What was measured:
[1] = refractive index (Na D-line) (dimensionless); details: 298.15 K; 101.33 kPa; Liquid; Standard Abbe refractometry
[2] = Boiling temperature at pressure P; details: 101.3 kPa; Liquid; Ebulliometric method (Recirculating still)
[3] = 298.15 K, 101.33 kPa, Liquid; for speed of sound: Single path-length method; for mass density: Vibrating tube method
[4] = xn = mol fraction of the nth substance listed; details: 298.15 K, 101.3 kPa, Liquid; for speed of sound: Frequency=3 MHz, Single path-length method; for mass density: Vibrating tube method
[5] = refractive index (Na D-line) (dimensionless); xn = mol fraction of the nth substance listed; details: 298.15 K, 101.3 kPa, Liquid, Standard Abbe refractometry

CC(C)CC(C)(C)C [2,2,4-trimethylpentane]
Details	Boiling temperature at pressure P [°C]	mass density [kg/m3]	refractive index	speed of sound [m/s]
[1]	–	–	1.38898	–
[2]	99.01	–	–	–
[3]	–	687.824	–	1082.8

CC(C)CC(C)(C)C [2,2,4-trimethylpentane] + CCCCO
Details	mass density, [4] [kg/m3]	refractive index, [5]	speed of sound, [4] [m/s]
x1 = 0.0518	795.39	1.39663	1223.4
x1 = 0.1022	785.94	1.39603	1208.3
x1 = 0.1512	777.34	1.39545	1194.3
x1 = 0.2028	768.9	1.39484	1181.5
x1 = 0.2535	761.12	1.39426	1169.4
x1 = 0.3042	753.81	1.39372	1157.9
x1 = 0.3535	747.12	1.39318	1148.6
x1 = 0.4049	740.56	1.39266	1139.1
x1 = 0.4534	734.72	1.39218	1130.8
x1 = 0.5032	729.09	1.39173	1123.4
x1 = 0.5534	723.73	1.39128	1116.6
x1 = 0.6041	718.63	1.39088	1110.3
x1 = 0.6558	713.71	1.3905	1104.5
x1 = 0.7046	709.35	1.39016	1099.6
x1 = 0.7521	705.31	1.38988	1095.4
x1 = 0.8047	701.05	1.38958	1091.1
x1 = 0.8521	697.48	1.38934	1087.9
x1 = 0.9005	694.03	1.38914	1085.1
x1 = 0.9502	690.74	1.38897	1082.8
x1 = 1	687.79	1.38898	1082.8

CC(C)CC(C)(C)C [2,2,4-trimethylpentane] + CCCCOCCCC
x1 = 1
Details	mass density [kg/m3]	refractive index	speed of sound [m/s]
[4]	687.71	–	1082.6
[5]	–	1.38898	–

CCCCO [butan-1-ol]
Details	mass density [kg/m3]	refractive index	speed of sound [m/s]
[1]	–	1.39725	–
[3]	805.769	–	1240.1

CCCCO [butan-1-ol] + CC(C)CC(C)(C)C
x2 = 0
Details	mass density [kg/m3]	refractive index	speed of sound [m/s]
[4]	805.78	–	1240.1
[5]	–	1.39725	–
